Measurements reported in ChEMBL document CHEMBL4808201, “Novel triazole-sulfonamide bearing pyrimidine moieties with carbonic anhydrase inhibitory action: Design, synthesis, computational and enzyme inhibition studies” (Bioorg Med Chem Lett, 2021).

biological target: Carbonic anhydrase 9 (Homo sapiens, UniProt Q16790); assay: Inhibition of human CA9 measured by stopped flow CO2 hydrase assay

Row | SMILES | Ki [nM]
1 | NS(=O)(=O)c1ccc(-n2cc(COc3ccnc(N4CCN(C(c5ccccc5)c5ccccc5)CC4)n3)nn2)cc1 | 192
2 | Cc1cc(OCc2cn(-c3ccc(S(N)(=O)=O)cc3)nn2)nc(N2CCCCC2)n1 | 35.8
3 | NS(=O)(=O)c1ccc(-n2cc(COc3ccnc(N4CCOCC4)n3)nn2)cc1 | 42.5
4 | NS(=O)(=O)c1ccc(-n2cc(COc3ccnc(N4CCN(Cc5ccccc5)CC4)n3)nn2)cc1 | 39.1
5 | Cc1cc(OCc2cn(-c3ccc(S(N)(=O)=O)cc3)nn2)nc(N2CCN(c3ccc(F)cc3)CC2)n1 | 466
6 | Cc1cc(OCc2cn(-c3ccc(S(N)(=O)=O)cc3)nn2)nc(N2CCN(Cc3ccccc3)CC2)n1 | 41.1
7 | NS(=O)(=O)c1ccc(-n2cc(COc3ccnc(N4CCN(Cc5ccc(Cl)cc5)CC4)n3)nn2)cc1 | 32.2
8 | CCOC(=O)N1CCN(c2nc(C)cc(OCc3cn(-c4ccc(S(N)(=O)=O)cc4)nn3)n2)CC1 | 33.4
9 | COc1ccccc1N1CCN(c2nccc(OCc3cn(-c4ccc(S(N)(=O)=O)cc4)nn3)n2)CC1 | 44.7
10 | COc1ccc(-c2nccc(OCc3cn(-c4ccc(S(N)(=O)=O)cc4)nn3)n2)cc1 | 51.4
11 | NS(=O)(=O)c1ccc(-n2cc(COc3ccnc(N4CCCCC4)n3)nn2)cc1 | 41.3
12 | N#Cc1cccnc1-c1nccc(OCc2cn(-c3ccc(S(N)(=O)=O)cc3)nn2)n1 | 155
13 | Cc1cc(OCc2cn(-c3ccc(S(N)(=O)=O)cc3)nn2)nc(N2CCN(c3ccccc3)CC2)n1 | 32.8
14 | COc1ccccc1N1CCN(c2nc(C)cc(OCc3cn(-c4ccc(S(N)(=O)=O)cc4)nn3)n2)CC1 | 36.3

Next, values leading:

Row | Ki [nM] | SMILES
15 | 30.2 | Cc1cc(OCc2cn(-c3ccc(S(N)(=O)=O)cc3)nn2)nc(N2CCOCC2)n1
16 | 21.4 | Cc1cc(OCc2cn(-c3ccc(S(N)(=O)=O)cc3)nn2)nc(N2CCN(C(c3ccccc3)c3ccccc3)CC2)n1
17 | 9.1 | Cc1cc(OCc2cn(-c3ccc(S(N)(=O)=O)cc3)nn2)nc(N2CCN(c3ccccn3)CC2)n1
18 | 16.1 | CCN1CCN(c2nc(C)cc(OCc3cn(-c4ccc(S(N)(=O)=O)cc4)nn3)n2)CC1
19 | 29.7 | COc1ccc(-c2nc(C)cc(OCc3cn(-c4ccc(S(N)(=O)=O)cc4)nn3)n2)cc1
20 | 32 | Cc1cc(OCc2cn(-c3ccc(S(N)(=O)=O)cc3)nn2)nc(-c2ncccc2C#N)n1
21 | 24.1 | Cc1cc(OCc2cn(-c3ccc(S(N)(=O)=O)cc3)nn2)nc(N2CCN(C)CC2)n1
22 | 25.8 | NS(=O)(=O)c1ccc(-n2cc(COc3ccnc(N4CCN(c5ccc(F)cc5)CC4)n3)nn2)cc1
23 | 22.7 | CCN1CCN(c2nccc(OCc3cn(-c4ccc(S(N)(=O)=O)cc4)nn3)n2)CC1
24 | 26.3 | NS(=O)(=O)c1ccc(-n2cc(COc3ccnc(N4CCN(c5ccccc5)CC4)n3)nn2)cc1
25 | 16.8 | NS(=O)(=O)c1ccc(-n2cc(COc3ccnc(N4CCN(c5ccccn5)CC4)n3)nn2)cc1
26 | 1.6 | CCOC(=O)N1CCN(c2nccc(OCc3cn(-c4ccc(S(N)(=O)=O)cc4)nn3)n2)CC1
27 | 2.9 | Cc1cc(OCc2cn(-c3ccc(S(N)(=O)=O)cc3)nn2)nc(N2CCN(Cc3ccc(Cl)cc3)CC2)n1
28 | 30.4 | CN1CCN(c2nccc(OCc3cn(-c4ccc(S(N)(=O)=O)cc4)nn3)n2)CC1
